Data taken from patent US20240067617A1 (Albireo AB, priority 2022, published 2024).

Assay: Bidirectional permeability assay (Caco-2 cells)
Type: in vitro ADME
Conditions: human, 10 μM in FaSSIF buffer, 120 minutes at 37° C.; for Papp A→B at 120 min, 10 µM: absorptive direction (A2B); for Papp B→A at 120 min, 10 µM: secretory direction (B2A)
Method: Bidirectional Permeability Assay (Caco-2 Cells)
Caco-2 cells (Evotec) were seeded at a density of 70,000 cells/well in Millicell© 24-well cell culture insert plates and maintained in an incubator (37° C., 5% CO2, 95% RH) for 21 days with media change on alternate days.
Stock solutions (10 mM) of the test compounds, atenolol (low permeability marker), propranolol (high permeability marker) and digoxin (substrate for P-gp transport pathway) were prepared in dimethylsulfoxide (DMSO). An intermediate stock solution (1 mM) was prepared by diluting 10 μL of 10 mM master stock solution with 90 μL of neat DMSO. A working stock solution (10 μM) was prepared by diluting 50 μL of 1 mM with 4950 μL of FaSSIF buffer. Post addition of compounds to the FaSSIF, samples were subjected to sonication for 2 hours, and centrifuged at 4000 RPM for 30 minutes at 37° C. The 4 mL of resultant supernatant was directly used in the assay. The final DMSO concentration in the transport experiments was 1%.
On the day of assay, Caco-2 monolayers were washed twice with transport buffer (HBSS, pH 7.4) and pre-incubated for 30 min (37° C., 5% CO2, 95% RH) in an incubator. The electrical resistance of the monolayers was measured with a Millicell®-ERS system. Monolayers with trans-epithelial electrical resistance (TEER) values greater than 350 ohm·cm^2 were selected for the assay.
The assay was conducted in absorptive direction (A2B) and secretory (B2A) directions. Transport experiments were initiated by addition of transport assay buffer (FaSSIF buffer prepared in HBSS) consisting of compounds to the donor compartment (apical chamber A-B; basolateral chamber B-A) in duplicate (n=2) wells. Drug free HBSS buffer (pH 7.4) containing 1% bovine serum albumin (BSA) was introduced to the receiver (A-B-basolateral; B-A-Apical) compartments. The volumes of apical and basolateral compartments were 0.4 and 0.8 mL, respectively. After adding dosing solution, plates were incubated in an incubator for 120 minutes at 37° C. After 120 minutes, donor and receiver samples were collected and matrix matched (1:1, 30 μL study sample+30 μL blank buffer) with the opposite buffer. Dosing samples matrix matched (1:1, 30 μL study sample+30 μL blank buffer) with the opposite buffer. Samples were processed by adding acetonitrile containing internal standard (60 μL study sample+200 μL acetonitrile containing internal standard—Tolbutamide, 500 ng/mL). Samples were vortexed and centrifuged at 4000 rpm for 10 minutes. The obtained supernatant (100 μL) was diluted with 100 μL of water and transferred to fresh 96 well plates. The concentration of compounds in the samples was analyzed by liquid chromatography tandem mass spectrometry (LC-MS/MS) method using discovery grade bio-analytical method, as applicable.
The mean apparent permeability (Papp,×10^−6 cm/sec) of the test compounds, atenolol, propranolol and digoxin were calculated as follows:
where dq/dt=rate of transport (rate of transport of compound in the receiver compartment), C0=initial concentration in the donor compartment, A=surface area of the effective filter membrane.

SMILES | Papp A→B at 120 min, 10 µM | Papp B→A at 120 min, 10 µM
CCCCC1(CC)CN(c2ccccc2)c2cc(SC)c(CSCC(=O)O)cc2S(=O)(=O)C1 (single isomer, unassigned) [2, enantiomer 1] | 75 nm/s | 93 nm/s
CCCCC1(C)CN(c2ccccc2)c2cc(SC)c(CSCC(=O)O)cc2S(=O)(=O)C1 (single isomer, unassigned) [5, enantiomer 1] | 293 nm/s | 253 nm/s
CCCCC1(CC)CN(c2ccc(F)cc2)c2cc(SC)c(CSCC(=O)O)cc2S(=O)(=O)C1 (single isomer, unassigned) [7, enantiomer 1] | 243 nm/s | 213 nm/s
